According to patent US7772383B2, “Chemical PCR: Compositions for enhancing polynucleotide amplification reactions” (The Trustees of Princeton University, priority 2002, dated 2010):
Read-outs that look alike come from different tables or passages of the source.

How the values were obtained:
[1] = tested on: 511 bp segment of human prostate-specific membrane antigen (PSM) cDNA; experiment: PCR amplification of PSM cDNA with diol additives, standard cycling; format: biochemical; details: for Specificity / Effective range / Potency: PSM; for Specificity: best specificity (densitometric volume of target as percent of total volume) over the effective range; for Effective range: concentration interval over which densitometric volume of target is at least 50% of maximum; for Potency: normalized maximum densitometric volume of target band: 1,3-Butanediol = 1
Experimental: (§1) Amplification reactions were carried out under the following general conditions. Those skilled in the art will appreciate, however, that to the extent that the conditions (set forth in this application) required for specific experiments described in this example were inconsistent with the following general conditions, limited exceptions to the following general conditions were made The general conditions were as follows: 10 Mm Tris-HCl (Ph 8.8), 50 Mm KCl, 1.5 Mm MgCl2, 0.01% (w/v) gelatin, 0.2 Um primers, 0.06 ng/ul template, 0.2 Mm each Dntp, 0.04 U/ul Taq polymerase. The templates used were bovine brain N-WASP cDNA (1518 bp), a 996 bp segment of human myeloid leukocyte c-jun cDNA, a 511 bp segment of human prostate-specific membrane antigen (PSM) cDNA, and bovine brain glycolipid transfer protein (GTP) cDNA (660 bp). cDNA synthesis was carried out using the FIRST-STRAND® RT-PCR kit from Stratagene on the respective mRNAs purchased from Clontech. All amplification reactions for gene were carried out using a single master batch of cDNA. Taq polymerase and dNTPs were obtained from Stratagene. Primers were obtained from Genosys. Primer melting temperatures (Tms) were calculated using the Genosys oligo calculator program. The sequences of the primers were as follows.
(§2) Polymerase chain reactions for the N-WASP gene were conducted on a ROBOCYCLER® Gradient 40 thermal cycler from Stratagene using 100 ul solutions in 600 ul thin-walled tubes. For expediency, amplification of c-jun, PSM and GTP was carried out in a ROBOCYCLER® Gradient 96 thermal cycler from Stratagene using 50 ul solutions in 200 ul thin-walled tubes. Prior to Taq polymerase addition, a hotstart protocol was carried out that consisted of an initial cycle of 95° C. for 5 minutes (11) to ensure complete first-strand separation, followed by a cycle of 54° C. for 5 minutes. Amplifications were run for 30 cycles. […] Extension was done at 72° C. for periods depending on target length: 2 minutes for N-WASP, 1.5 minutes for c-jun and GTP, and 1 minute for PSM. Annealings were carried out either at fixed concentrations of additives using temperature gradients of 38-56° C. for N-WASP and 44-58° C. for the other targets, or at varying concentrations of additives using fixed temperatures of 41° C. for N-WASP, 50° C. for c-jun and PSM, and 54° C. for GTP.
(§3) Amplification products were analyzed by agarose gel electrophoresis on 0.8% agarose gels in which 20 ul reaction products were loaded with 4 ul loading buffer. Gels were stained with ethidium bromide, visualized on a UV transilluminator (Fisher), and documented by photography. Densitometric quantitation of amplification products was carried out using IMAGE SCANNER® and IMAGE MASTER® software from Amersham Pharmacia. Background correction was done using the software's rolling disc method.
(§4) With PSM, 1,2-propanediol, 1,2-butanediol, 1,3-butanediol, 1,4-butanediol and glycerol were tested; with c-jun, ethylene glycol and 1,3-propanediol were also tested in addition to these compounds. […] The following additive concentrations were tested using these annealing temperatures: 1,2-propanediol—0.5, 0.8, 1.1, 1.4, 1.7 and 2.0M; 1,2-butanediol—0.1, 0.3, 0.5, 0.6, 0.7 and 0.8M; 1,3-butanediol—0.1, 0.3, 0.5, 0.6, 0.9, 1.1, 1.2M; 1,4-butanediol—0.1 to 1.1M in 0.2M intervals; 1,5-pentanediol—0.1-0.6M in 0.1M intervals; glycerol—0.5 to 1.9M in 0.2M intervals, and 2.2M.

[2] = when functional; general statement on prior use; cited from earlier work
[3] = tested on: bovine brain glycolipid transfer protein (GTP) cDNA (660 bp); experiment: PCR amplification of GTP cDNA with diol additives, standard cycling; format: biochemical; details: for amplification of GTP over annealing temperature gradients (in words): 95° C. denaturing temperature
Experimental: as §1, §2, §3
Investigations into the PCR enhancing capabilities of diol cosolvents were carried out using GTP as the primary template. […] The standard protocol for annealing temperature and concentration gradient screening was again followed. […] These cosolvents were thus omitted from further studies. The optimal annealing temperatures for the remaining compounds were: ethylene glycol, 1,2-propanediol, 1,3-propanediol and cis-1,2-cyclopentanediol—58° C.; 1,2-butanediol—54° C.; 1,3-butanediol and 1,4-butanediol—[…]; 2,4-pentanediol, 1,5-pentanediol, 1,6-hexanediol and MPD—56° C.

[4] = tested on: 996 bp segment of human myeloid leukocyte c-jun cDNA; experiment: PCR amplification of c-jun cDNA with diol additives, standard cycling; format: biochemical
Experimental: as §1, §2, §3, §4

[5] = tested on: GC-rich segment of crab satellite DNA; details: literature (Varadaraj and Skinner, 1994); cited from earlier work
Taq polymerase = molecular target: T1, Taq polymerase (Thermus aquaticus, UniProt P19821); experiment: Taq polymerase activity assays at low temperature in the presence of additives; format: biochemical; details: 1.0M 1,5-pentanediol, 0.7M 1,6-hexanediol; for Activity of Taq polymerase: normalized to activity of control at 62° C.; for Activation: change in Taq activity versus control
T1 construct: purchased Stratagene
Experimental: The measured polymerase activity, then, is in fact a function of two variables—temperature and additive concentration. The plot of measured activity versus temperature and additive concentration is a two-dimensional surface. While a truly comprehensive search for maximal polymerase activity would entail screening this entire surface, the number of experiments required to do so would of course be impractical. Therefore, polymerase activity was measured first as a function of temperature in the absence of additives and at one given, high additive concentration. The temperature that yielded the maximum activity of the polymerase at that concentration was then targeted for concentration gradient studies.
First, polymerase activity assays were carried out in the absence of additives and in the presence of 1.0M 1,5-pentanediol and 0.7M 1,6-hexanediol at temperatures between 46 and 62° C. Next, polymerase activity was studied at 53° C. in the presence of concentration gradients of 1,5-pentanediol, 2-pyrrolidone, sulfolane and tetramethylene sulfoxide. The concentrations tested were: 1,5-pentanediol: 1.0, 1.3, 1.5, 2.25, 3.0 and 3.5M; 2-pyrrolidone: 1.25, 1.5, 2.0 and 3.9M; sulfolane: 1.0, 1.5, 2.0 and 2.75M, tetramethylene sulfoxide: 1.0, 1.5, 2.0 and 3.0M.

50% GC DNA = experiment: Predicted cosolvent-induced Tm depression of DNA; format: physicochemical; details: 1.0M 1,5-pentanediol, 0.7M 1,6-hexanediol, linearity not verified
Experimental: The compounds utilized in the first phase (testing using 1.0M 1,5-pentanediol and 0.7M 1,6-hexanediol at temperatures between 46 and 62° C.) were chosen on the basis of the following rationale. The optimal additive for a low temperature PCR reaction is one that lowers the melting temperature of DNA as much as possible while minimally compromising polymerase activity. 1,5-Pentanediol and 1,6-hexanediol are both powerful DNA melting agents. In addition, it was found in the 62° C. activity studies that the rate of activity decline with concentration of 1,5-pentanediol was roughly equivalent to that of 1,2-butanediol, despite the fact that the former is a much stronger DNA denaturant. 1.0M 1,5-pentanediol and 0.7M 1,6-hexanediol are predicted to lower the Tm of a 50% GC DNA by approximately the same amount: 19° C.

[6] = tested on: 1026 by segment of the Thy-1 gene from rat genomic DNA; format: biochemical
[7] = GTP, 95° C. denaturing, 72° C. extension, normalized maximum densitometric volume of target band: 1,5-Pentanediol = 1
[8] = GTP, concentration interval over which densitometric volume of target band is at least 50% of maximum volume
[9] = c-jun, concentration interval over which densitometric volume of target band is at least 50% of maximum volume
[10] = c-jun, normalized maximum densitometric volume of target band: 1,5-Pentanediol = 1

T1 sequence (P19821 whole entry): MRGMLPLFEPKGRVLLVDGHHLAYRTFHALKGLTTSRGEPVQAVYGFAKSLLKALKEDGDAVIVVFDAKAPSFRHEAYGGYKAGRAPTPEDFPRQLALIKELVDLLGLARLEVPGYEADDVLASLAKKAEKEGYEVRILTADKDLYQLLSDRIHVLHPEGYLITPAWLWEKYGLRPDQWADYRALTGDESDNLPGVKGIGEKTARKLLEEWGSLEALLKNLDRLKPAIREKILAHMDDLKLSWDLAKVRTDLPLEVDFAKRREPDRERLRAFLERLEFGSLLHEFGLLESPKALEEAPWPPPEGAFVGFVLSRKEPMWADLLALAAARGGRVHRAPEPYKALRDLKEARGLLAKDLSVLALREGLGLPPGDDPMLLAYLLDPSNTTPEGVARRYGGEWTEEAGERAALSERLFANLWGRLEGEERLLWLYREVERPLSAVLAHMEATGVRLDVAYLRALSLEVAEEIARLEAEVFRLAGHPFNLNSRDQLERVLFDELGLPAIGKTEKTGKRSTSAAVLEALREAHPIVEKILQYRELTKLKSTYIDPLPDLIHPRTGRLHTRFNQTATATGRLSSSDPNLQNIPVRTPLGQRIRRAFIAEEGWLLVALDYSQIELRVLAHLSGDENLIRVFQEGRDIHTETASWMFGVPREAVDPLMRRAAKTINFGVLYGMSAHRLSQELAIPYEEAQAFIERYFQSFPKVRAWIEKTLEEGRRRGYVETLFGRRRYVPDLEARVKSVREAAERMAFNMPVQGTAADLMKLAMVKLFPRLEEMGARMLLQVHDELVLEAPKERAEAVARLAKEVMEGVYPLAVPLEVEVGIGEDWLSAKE

Row | Compound | Specificity [1] | Effective range [1] | Potency [1] | Potency [3, 7] | Effective range [3, 8] | Effective range [4, 9] | Potency [4, 10] | also measured
1 | OCC(O)CO [Glycerol, reference compound] | 83% | 1.10 to 1.63 M | 0.22 | 0.28 | 0.26 to 1.17 M | 0.50 to 1.25 M | 0.13 | concentrations at which a positive effect on PCR is usually found [2]: 5-15%; enhancement of crab satellite DNA amplification relative to that provided by DMSO [5]: less than 25%
2 | CC(O)CC(C)(C)O (stereo not drawn) [2-Methyl-2,4-Pentanediol] | – | – | – | 0.45 | 0.12 to 0.33 M | – | – | –
3 | CCCCC(O)CO (stereo not drawn) [1,2-Hexanediol] | – | – | – | – | – | – | – | amplification of GTP over annealing temperature gradients (in words) ([3]; GTP): detectable amplification only in very narrow concentration ranges
4 | O[C@@H]1CCC[C@@H]1O [cis-1,2-Cyclopentanediol] | – | – | – | 0.91 | 0.13 to 0.35 M | – | – | –
5 | CC(O)CO (stereo not drawn) [1,2-Propanediol] | 89% | 0.65 to 1.40 M | 0.75 | 0.64 | 0.52 to 1.79 M | 0.43 to 1.87 M | 0.60 | –
6 | CC(O)CC(C)O (stereo not drawn) [2,4-Pentanediol] | – | – | – | 0.61 | 0.25 to 0.70 M | – | – | –
7 | CCCC(O)CO (stereo not drawn) [1,2-Pentanediol] | – | – | – | – | – | – | – | amplification of GTP over annealing temperature gradients (in words) ([3]; GTP): detectable amplification only in very narrow concentration ranges
8 | OCCCCCCO [1,6-Hexanediol] | – | – | – | 0.80 | 0.13 to 0.29 M | – | – | Activity of Taq polymerase (Taq polymerase; 47° C.): 0.24; Activation (Taq polymerase; 47° C.): −27%; Activity of Taq polymerase (Taq polymerase; 48° C.): 0.36; Activation (Taq polymerase; 48° C.): −12%; Activity of Taq polymerase (Taq polymerase; 49° C.): 0.57; Activation (Taq polymerase; 49° C.): +16%; Activity of Taq polymerase (Taq polymerase; 50° C.): 0.60; Activation (Taq polymerase; 50° C.): +20%; Activity of Taq polymerase (Taq polymerase; 51° C.): 0.60; Activation (Taq polymerase; 51° C.): +13%; Activity of Taq polymerase (Taq polymerase; 52° C.): 0.64; Activation (Taq polymerase; 52° C.): +25%; Activity of Taq polymerase (Taq polymerase; 53° C.): 0.64; Activation (Taq polymerase; 53° C.): +12%; Activity of Taq polymerase (Taq polymerase; 54° C.): 0.60; Activation (Taq polymerase; 54° C.): −2%; Activity of Taq polymerase (Taq polymerase; 55° C.): 0.51; Activation (Taq polymerase; 55° C.): −27%; lowering of the Tm of a 50% GC DNA (50% GC DNA): ~19 °C
9 | OCCCCO [1,4-Butanediol] | 92% | 0.38 to 0.80 M | 0.65 | – | – | – | – | Effective range [3]: 0.16 to 0.77 M; Potency [3]: 0.87; Effective range [4]: 0.35 to 0.91 M; Potency [4]: 0.82
10 | CC(O)CCO (stereo not drawn) [1,3-Butanediol] | 94% | 0.55 to 1.03 M | 1.00 | 0.85 | 0.29 to 0.96 M | 0.40 to 1.12 M | 0.77 | PSM Potency ([1]; comparative standard 95/50/72° C., 0.8 M, best result under conventional conditions, normalization reference): 1.00; PSM Specificity ([1]; comparative standard 95/50/72° C., 0.8 M, densitometric volume of target band as percent of total volume): 94%; amplification yield of Thy-1 genomic DNA (in words) [6]: particularly dramatic improvement
11 | OCCO [Ethylene glycol] | – | – | – | – | – | – | – | Effective range [3]: 1.55 to 3.55 M; Potency [3]: 0.62; amplification yield of Thy-1 genomic DNA (in words) [6]: improve amplification yield; Effective range [4]: 0.71 to 3.10 M; Potency [4]: 0.58
12 | O[C@@H]1CCC[C@H]1O (relative stereo) [trans-1,2-Cyclopentanediol] | – | – | – | – | – | – | – | amplification of GTP over annealing temperature gradients (in words) ([3]; GTP): inhibitory at all concentrations
13 | OCCCO [1,3-Propanediol] | – | – | – | 0.39 | 0.31 to 1.18 M | 0.59 to 0.96 M | 0.25 | –
